Test [1] has as its system NF-kB in HT-29 colon cancer cells. To be noted: cited from earlier work.
Test [2] relates to NF-kB and c-myc mRNA expression in K562 cells. Briefly: NF-kB and c-myc mRNA expression levels by real time PCR. Format: cell-based. The following applies: RT-PCR. The source says:
(§1) In order to determine anti-carcinogenic effect of the inventive compound acute promyelocytic leukaemia (HL-60) and chronic myelogenous leukaemia (K-562) cells were used to prepare cancer cell cultures under suitable conditions. Both leukemic cell lines were subjected to the following methods: • Determination of cytotoxicity / MTT test; • Determination of apoptotic effect using flow cytometry device with Annexin V-FITC/7-AAD kit; • Determination of apoptotic effect using flow cytometry device with caspase-3/7 activation; • Determination of mitochondrial membrane integrity of cells using JC-1 dyeing method; • Determination of apoptotic DNA using DNA fragmentation method with agarose gel; • Determination of NF-kB and c-myc mRNA expression levels using real time PCR (polymerase chain reaction) method; • Gene panel study using RT-PCR method.
Background: In qPCR the cycle at which signal appears reflects the starting amount.

For test [3], the system named is NF-kB and c-myc mRNA expression in HL-60 cells. The test is described as above. Format: cell-based. To be noted: RT-PCR.
From the text: as §1

The next test concerns NF-kB in Caco2 cells. To be noted: cited from earlier work.
Test [4] has as its system NF-kB in HCT116 colon cancer cells. The following applies: cited from earlier work.
Test [5] relates to K562 cells. The test can be described thus: Apoptotic effect by flow cytometry with Annexin V-FITC/7-AAD kit. Format: cell-based.
From the text: as §1

For test [6], the system named is NF-kB levels in MM.1S cells. To be noted: 12 nmol/mL, 12th and 24th hours of incubation, ELISA; cited from earlier work.
Test [7] relates to HL-60 cells. The test can be described thus: Mitochondrial membrane integrity, JC-1 dyeing method. Format: cell-based. To be noted: 12.5 µM (increase starting from 1.5 µM).
From the text: as §1

Test [8] concerns K562 cells. The test is described as above. Format: cell-based. The following applies: 12.5 µM.
From the text: as §1

Test [9] deals with K562 cells. The test can be described thus: Apoptotic effect by flow cytometry with caspase-3/7 activation. Format: cell-based. To be noted: 12.5 µM, 24 hours of incubation.
From the text: as §1

The subject of test [10] is HL-60 cells. Briefly: Determination of cytotoxicity / MTT test. Format: cell-based.
From the text: as §1

Test [11] relates to K562 cells. Briefly: Determination of cytotoxicity / MTT test. Format: cell-based.
From the text: as §1
In general terms: Formazan colour is commonly taken as a measure of viable cells.

Test [12] relates to NFkB-1, p53, PIK3CA, BCL-3, ICAM1, KRAS and BCR genes in K562 cells. The test can be described thus: Gene panel study by RT-PCR. The following applies: in comparison to control and Bortezomib groups. Format: cell-based.
From the text: as §1
(§2) The genes used in gene panel study with RT-PCR method include; NFKB-1, TNF, RELA, NMI, TP53, IL-6, TP53, PIK3CA, NFKB-2, BCL-3, NFKBIA, RELB, ICAM1, IL-8, KRAS, BCR, GAPDH.

The subject of test [13] is NFkB-1, p53, PIK3CA, BCL-3, ICAM1, KRAS and BCR genes in HL-60 cells. The test can be described thus: Gene panel study by RT-PCR. To be noted: in comparison to control and Bortezomib groups, decrease more effective than in K562 cells. Format: cell-based.
From the text: as §1, §2

A further test has as its system HL-60 cell line. Briefly: Apoptotic effect by flow cytometry with Annexin V-FITC/7-AAD kit. Format: cell-based.
From the text: as §1
In general terms: In flow cytometry, cells or beads pass a laser one at a time.

As for `CC(C)C[C@H](NC(=O)[C@H](Cc1ccccc1)NC(=O)c1cnccn1)B(O)O` [Bortezomib, reference compound], the NF-kB inhibition entry in test [1] is reported as “NF-kB inhibition was observed”; in the test on NF-kB in Caco2 cells it was “not observed”; in test [4], “NF-kB inhibition was observed”. The “expression of NF-kB gene” value in [2] and in test [3] was “decreases expression” in each case. In addition, the “early apoptotic cell ratio” value in the test with K562 cells [5] (K562 cells, 3.12 µM, 24th hour) came out at 18.1%.

As to `CC(C)C[C@H](NC(=O)CNC(=O)c1cc(Cl)ccc1Cl)B(O)O` [MLN2238], the NF-kB levels result in [6] is “significant decreases”.

For orientation: IC50 means the point on the concentration scale where inhibition reaches its midpoint. Higher therefore signals weaker potency. For the compound “(4-(2-amino-2-(10,11-dioxo-10,11-dihydro-5H-imidaso[1,5,4,3-lmn][1,10]phenanthrolin-5-il]ethyl]phenyl]boronic acid [inventive compound]”, the entries for the “ratio of JC-1 positive cells” value in the test with HL-60 cells [7] and with K562 cells [8] were 37.1% and 14.7%, respectively. Further, the “increase in the ratio of caspase 3/7 positive cells, K562 cells in comparison to HL-60 cells” value in the test on K562 cells [9] worked out at 2 times. For the same compound, the IC50 with HL-60 cells [10] (24th hour) is 2160 nM; with HL-60 cells [10] (48th hour) it was 2850 nM; in the test on K562 cells [11] (24th hour), 2620 nM; in the test on K562 cells [11] (48th hour), 3410 nM. Moreover, the “expression of NF-kB gene” value in test [2] and in test [3] was “decreases expression” in each case. Further, the results for the c-myc expression result in test [2] (versus control group) and in test [3] were “higher than control group values” and “decreased”, respectively. Further, the “expression of NFkB-1, p53, PIK3CA, BCL-3, ICAM1, KRAS and BCR genes” value in test [12] and in [13] was “decreases expression” throughout. In addition, the early apoptotic effect result in the test on HL-60 cell line (Annexin-V/7-AAD) is “has not displayed early apoptotic effect”. Besides, the necrotic cell rates result in the test with HL-60 cell line (concentrations of 3.12 µM and more, compared to control) is reported as “increase compared to control”. Moreover, in the test with K562 cells [5] (K562 cells, 1.5 µM), the apoptotic cell ratio is listed as 13.7%. In addition, the “early and late apoptotic cell rate” value in the test with K562 cells [5] (K562 cells, 12.5 µM) came to 38.2%. The apoptotic effect entry in the test on K562 cells [5] (K562 cells, 1.5, 3.12, 6.25 and 12.5 µM, 24th hour) is on record as “increased the apoptotic effect”. Moreover, in the test on K562 cells [5] (K562 cells, concentrations of 6.5 and 12.5 µM, compared to control), the “early-late apoptotic and necrotic cell rates” value was “increase compared to control”.

The values are drawn from patent publication EP3018135A1, “A COMPOUND WITH ANTI-CARCINOGENIC EFFECT AND A METHOD FOR PRODUCTION OF THIS COMPOUND” (Ulusal Bor Arastirma Enstitusu, priority 2014, dated 2016).
